Source: PubChem BioAssay AID720547 (The Scripps Research Institute Molecular Screening Center, 2013)
Several values for one entry are separate records, joined by “and”; a condition that tells them apart may be missing. Equal values may be shown once. Activity calls are given as the source filed them.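 How the source made its calls: active means compound flagged as a likely artifact in this counterscreen, with IC50 of 10 µM or lower; inactive means IC50 above 10 µM.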

What follows are compounds tested on HEK293 Gal4-VP16 luciferase reporter counterscreen, luminescence (assay: VP16-driven transactivation reporter suppression potency – cell-based, luminescence, HEK293, counter-screen for COUP-TFII inhibitor project, dose response (AID 720547);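 further: potency for lowering the luciferase signal driven by Gal4-VP16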).

Row | SMILES | IC50
1 | CCOC(=O)N1CCC(NC(=O)C2CCCN(Cc3nc(-c4ccc(CC)cc4)oc3C)C2)CC1 (configuration not stated) | 80.1 µM (inactive)
2 | N=c1c2c(n(Cc3ccc(Cl)cc3)c3c1CCC3)CCC2 | 89 µM (inactive)
3 | COc1ccc(/C=N/OCC(=O)NC(c2ccccc2)c2ccccc2)cc1OC | > 85.4 µM (inactive)
4 | CCN=c1scc(-c2ccc3c(c2)NC(=O)CO3)n1N=C1CCCC1 | > 85.4 µM (inactive)
5 | CCOC(=O)c1cnc(-n2nc(C)cc2C)nc1NC1CCCCC1 | 45.4 µM (inactive)
6 | CCN1/C(=C\c2ccc3ccccc3[n+]2CC)Sc2cc(C)ccc21 | 53.9 µM (inactive)
7 | Cc1nc2c(-c3ccc(Cl)cc3)cnn2c(N)c1-c1ccc(F)cc1 | > 85.4 µM (inactive)
8 | Fc1ccc2[nH]c3c(N4CCc5ccccc5C4)ncnc3c2c1 | 77.5 µM (inactive)
9 | Cc1ccc(-c2csc(NC(=O)C3CCN(S(=O)(=O)c4cccs4)CC3)n2)cc1 | > 85.4 µM (inactive)
10 | NC(=O)c1c(-c2ccc(Cl)cc2Cl)csc1NC(=O)Cc1ccccc1 | > 85.4 µM (inactive)
11 | Oc1ccc(Oc2ccc3c(C(F)(F)F)cc(C(F)(F)F)nc3n2)cc1 | 37 µM (inactive)
12 | COc1ccc(-c2ccc3oc(-c4ccc(OC)cc4)c(C#CCO)c3c2)cc1 | > 85.4 µM (inactive)
13 | Oc1ccc(CCNc2ncnc3ccc(Cl)cc23)cc1 | > 85.4 µM (inactive)
14 | Cc1ccc(-c2cc3cccc[n+]3cc2-c2ccc(C)cc2)cc1 | > 28.5 µM (inactive)
15 | Oc1ccc(-c2n[nH]c(C(F)(F)F)c2-c2ccccc2)c(O)c1 | > 85.4 µM (inactive)
16 | CC[C@H]1CN2CCc3cc(OC)c(OC)cc3C2C[C@@H]1C[C@H]1NCCc2cc(OC)c(OC)cc21 (some centres not stated) | > 85.4 µM (inactive)
17 | O=C(/C=C/c1ccc([N+](=O)[O-])cc1)c1ccccc(=O)c1O | 13.2 µM (inactive)
18 | COC(=O)C1=C(c2ccc(-c3ccccc3)c(F)c2)C[C@@H]2CC[C@H]1N2C(=O)N1CCCC1 | > 85.4 µM (inactive)
19 | OC[C@@H]1CN(Cc2ccc(-c3ccccc3)cc2)C[C@H](n2cnc3c(NC4CCC4)ncnc32)O1 | 64.1 µM (inactive)
20 | O=C(NCCc1cn2ccccc2n1)c1cc(COc2ccc3ncccc3c2)on1 | 31.1 µM (inactive)
21 | CCC(C)C(NC(=O)CCCNC(=O)CCC(=O)OC1O[C@H]2OC3(C)CC[C@H]4[C@H](C)CCC(C1C)C24OO3)C(=O)O (some centres not stated) | > 85.4 µM (inactive)
22 | Cc1cc(/C=C2\Sc3ccccc3N2C)cc(C)[n+]1CC1CCCO1 (configuration not stated) | > 85.4 µM (inactive)
23 | N=c1ccn(CC(=O)c2ccc(-c3ccccc3)cc2)cc1 | > 85.4 µM (inactive)

Row | SMILES | IC50
24 | N#CC(C#N)=C(Nc1ccc(F)cc1)SCc1cccc(Br)c1 | > 85.4 µM (inactive)
25 | C/C(=N\NC(N)=S)C1C2C3CC4C5CC(C42)C1C53 (configuration not stated) | > 85.4 µM (inactive)
26 | Cc1ccc(Cl)cc1S(=O)(=O)N1CCC(C(=O)NC2CCN(Cc3ccccc3)CC2)CC1 | > 85.4 µM (inactive)
27 | C=CC[n+]1c(-c2ccc(Cl)cc2Cl)csc1Nc1c(C)n(C)n(-c2ccccc2)c1=O | > 85.4 µM (inactive)
28 | Cc1cc(C)c(S(=O)(=O)NCc2ccncc2)c(C)c1 | > 85.4 µM (inactive)
29 | CC[n+]1c(C=C2C=C(C)OC(C)=C2)sc2ccccc21 | > 85.4 µM (inactive)
30 | c1ccc2c(c1)CCN(c1ncnc3c1[nH]c1ccccc13)C2 | 53.8 µM (inactive)
31 | CC(C)CNc1ncnc2c1ncn2[C@H]1CN(Cc2ccc(-c3ccccc3)cc2)C[C@@H](CO)O1 | 61.9 µM (inactive)
32 | O=C(c1ccccc1)C1CCN(c2ncnc3sccc23)CC1 | > 85.5 µM (inactive)
33 | Cc1cccc(Cl)c1NC(=O)N1CCCN(c2nc3ccc(Cl)cc3s2)CC1 | > 85.4 µM (inactive)
34 | Cc1ccc(OCCN2CCN(c3ncnc4sc(C)c(C)c34)CC2)cc1 | > 85.4 µM (inactive)
35 | CCCCOC(=O)c1[nH]c2c(c1C)C(=O)CC(c1cc(OC)c(OC)c(OC)c1)C2 (configuration not stated) | > 85.4 µM (inactive)
36 | CCC1CCCCN1C(=O)c1cc(COc2ccc3ncccc3c2)on1 (configuration not stated) | > 85.4 µM (inactive)
37 | Cc1oc(-c2ccc(Cl)cc2)nc1CS(=O)CC(=O)NCCCN1CCN(Cc2ccccc2)CC1 (configuration not stated) | > 28.5 µM (inactive)
38 | C[C@H]1C[C@@H](C)C(=O)[C@@H]([C@H](O)CC2CC(=O)NC(=O)C2)C1 | > 85.4 µM (inactive)
39 | Fc1ccc(NC(=S)N2CCCN(c3ccc(C(F)(F)F)cn3)CC2)c(F)c1 | > 85.4 µM (inactive)
40 | Cc1sc2ncnc(NCC3COc4ccccc4O3)c2c1C (configuration not stated) | > 85.4 µM (inactive)
41 | Cn1nccc1C(=O)NC1CCCc2c1cnn2-c1ccccc1F (configuration not stated) | > 85.4 µM (inactive)
42 | Cc1ccc(F)cc1NC(=O)Cc1nn(C)c(=O)c2ccccc12 | > 85.4 µM (inactive)
43 | Cc1c(C(=O)NCc2ccc(C(C)C)cc2)sc(=O)n1Cc1ccc(S(=O)(=O)N(C)C)cc1 | > 85.4 µM (inactive)
44 | COc1cc2c(cc1OC)C1C(=O)c3ccc4c(c3OC1CO2)CC(C(C)C)O4 (configuration not stated) | > 28.5 µM (inactive)
45 | COc1ccc(NS(=O)(=O)c2ccc(-c3coc(C)n3)cc2)cc1OC | > 85.4 µM (inactive)
46 | Cc1c(Cl)cccc1NC(=O)N1CCCN(c2nc(-c3ccccc3)ns2)CC1 | > 85.4 µM (inactive)

Row | SMILES | IC50
47 | COc1ccc(CNC(=O)c2cccc3c(-c4cccnc4)coc23)cc1OC | 43.4 µM (inactive)
48 | CCCc1cc(=O)n2nc(N3CCC(C(=O)N4CCN(c5ccc(OC)cc5)CC4)CC3)sc2n1 | > 85.4 µM (inactive)
49 | O=C(Nc1ccncc1)c1ccc(Cl)c(S(=O)(=O)N2CCc3ccccc32)c1 | 60.6 µM (inactive)
50 | C[n+]1c2n(c3ccccc31)N=C(c1ccc(-c3ccccc3)cc1)CS2 | > 28.5 µM (inactive)
51 | Cc1ccc(Cn2ncc3c(N4CCN(Cc5ccc(Cl)cc5)CC4)ncnc32)cc1 | > 85.4 µM (inactive)
52 | Cc1c(C)n(Cc2ccccc2)c2ncnc(Cl)c12 | > 85.4 µM (inactive)
53 | CC(C)c1ccc(CN2CCN(C(=O)CSc3nnnn3C3CC3)CC2)cc1 | > 85.4 µM (inactive)
54 | CC(=O)c1cn(CCOc2ccccc2C)c2ccccc12 | > 85.4 µM (inactive)
55 | O=C(CSc1nnnn1C1CC2CCC1C2)Nc1ccnc2ccccc12 (configuration not stated) | > 85.4 µM (inactive)
56 | Cc1ccccc1Cn1c(C)nc2ccccc21 | > 85.4 µM (inactive)
57 | Cc1ccc(-c2cn(-c3ccccc3)c3[n+]2CCCS3)cc1 | > 85.4 µM (inactive)
58 | Cc1cc(/C=C2/SC(=S)N(c3cccc(Cl)c3)C2=O)c(C)n1-c1cccnc1 | > 85.4 µM (inactive)
59 | CSc1ccccc1OCc1cc(C(=O)N2CCC(c3ccncc3)CC2)no1 | > 85.4 µM (inactive)
60 | Cc1cc(-n2c(C)cc(C(=O)CSc3ncnc4ccccc34)c2C)no1 | > 85.5 µM (inactive)
61 | CC(C)(C)c1ccc(CSc2cnn(C(C)(C)C)c(=O)c2Cl)cc1 | > 85.4 µM (inactive)
62 | COc1ccc(C(=O)C2CCN(c3ncnc4sccc34)CC2)cc1 | > 28.4 µM (inactive)
63 | O=C(Cc1ccc(Cl)cc1Cl)Nc1ccncc1Cl | > 85.4 µM (inactive)
64 | Cn1nc(CC(=O)Nc2ccc3c(c2)OCCO3)c2ccccc2c1=O | > 85.4 µM (inactive)
65 | CC(C)(C)c1ccc(-c2cc(-c3ccccc3O)[nH]n2)cc1 | 36.6 µM (inactive)
66 | COc1ccc(CNc2ncnc3ccccc23)cc1 | > 85.4 µM (inactive)
67 | Cn1c(=O)c2[nH]c(CCCCCCCCc3nc4ccccc4[nH]3)nc2n(C)c1=O | > 28.5 µM (inactive)
68 | Cc1ccnc(Nc2nc(-c3sc(C)nc3C)cs2)c1 | > 85.3 µM (inactive)
69 | O=C(NC(Nc1nc2ccc([N+](=O)[O-])cc2s1)(C(F)(F)F)C(F)(F)F)c1cccnc1 | > 85.4 µM (inactive)

Row | SMILES | IC50
70 | NC(=S)NN=C1c2cc(OCCN3CCOCC3)ccc2-c2ccc(OCCN3CCOCC3)cc21 | 12 µM (inactive)
71 | O=C(CSc1nnc(Cn2nnc3ccccc32)o1)N(Cc1ccc(Cl)cc1)c1ccccc1 | > 85.4 µM (inactive)
72 | CC(Nc1ncnc2ccccc12)c1ccccc1 (configuration not stated) | > 85.5 µM (inactive)
73 | CCc1cc(-c2nnn(CCC3COCCO3)c2CC)ccc1-c1cn(Cc2ccc3ccccc3c2)nn1 (configuration not stated) | > 85.4 µM (inactive)
74 | Fc1ccc(CN2CCN(c3ncc(Cc4ccccc4)cn3)CC2)c(Cl)c1 | > 85.3 µM (inactive)
75 | Cn1c2ccccc2c(=O)c2cc(C#CC3(O)CCCCC3)ccc21 | > 85.4 µM (inactive)
76 | COc1ccc(-n2cc(-c3ccc(C)cc3)[n+]3c2SCC3)cc1 | > 85.4 µM (inactive)
77 | CCOC(=O)c1c(C)[nH]c(C(=O)OCC(=O)Nc2sccc2C(N)=O)c1C | 29.8 µM (inactive)
78 | O=C1N(c2ccccc2)C[C@@H]2C[C@@H](c3cc4ccccc4o3)N3CCC[C@@]123 | > 85.4 µM (inactive)
79 | CCc1ccc(CN(C)C(=O)c2cc(COc3cccc4cnccc34)on2)cc1 | > 85.4 µM (inactive)
80 | OC[C@@H]1CN(Cc2ccc(-c3ccccc3)cc2)C[C@H](n2cnc3c(NC4CCCC4)ncnc32)O1 | 53.4 µM (inactive)
81 | Cc1[nH]nc(C(F)(F)F)c1N=NN1CCOCC1 | 51.6 µM (inactive)
82 | Cc1nn(C)c(C)c1CN(C)S(=O)(=O)c1ccc2ccccc2c1 | > 85.4 µM (inactive)
83 | Cc1cc(C)c(O)c(C(=O)CC2CC(=O)NC(=O)C2)c1 | > 85.4 µM (inactive)
84 | Cc1nc2ccccc2n1Cc1ccc(Cl)cc1 | > 85.4 µM (inactive)
85 | COC(=O)c1ccc2nc(Nc3nc4ccc(F)cc4s3)sc2c1 | > 85.4 µM (inactive)
86 | c1ccc(CNc2ncnc3ccccc23)cc1 | > 85.4 µM (inactive) and > 85.3 µM (inactive)
87 | Cc1sc(NC(=O)CN2CCOCC2)nc1-c1ccc2c(c1)CCN2S(=O)(=O)c1ccccc1 | > 85.4 µM (inactive)
88 | CCOc1ccc(S(=O)(=O)NCc2ccncc2)cc1 | > 85.4 µM (inactive)
89 | COc1ccc(OC)c(CCNC(=O)Cn2nc(C)c3c(C)n(-c4ccc(C)cc4)nc3c2=O)c1 | > 28.5 µM (inactive)
90 | COc1ccc(NS(=O)(=O)c2cccc(NC(=O)c3ccc(Cl)nc3)c2)cc1 | 73.5 µM (inactive)
91 | CC[C@@H](O)C[C@H]1CCC[C@@]2(C[C@@H]3OC(=O)/C=C/[C@@](C)(O)[C@@H](O)[C@H](C)[C@@H](O)[C@H](OC4CCC(N(C)C)C(C)O4)[C@@H](O)[C@](C)(O)CCCCC/C=C/[C@@H]4CC(C)(C)O[C@@]4(O)C[C@H](O2)[C@H]3C)O1 (some centres not stated) | 37 µM (inactive)
92 | CCNc1nc(-c2sc(NC(=O)C(C)(C)C)nc2C)c(-n2cc(-c3ccccc3)nn2)s1 | 21.1 µM (inactive)
